Values belong to the compound of their own block, whether it stands above or below them.
- melting point: 163 to 165 °C
SMILES: C=CCn1c(-c2c(Cl)cccc2Cl)nc(-c2ccncc2)c1-c1ccc(Cl)cc1 [Example 22, 4-[1-Allyl-5-(4-chloro-phenyl)-2-(2,6-dichloro-phenyl)-1H-imidazol-4-yl]-pyridine]

- melting point: 173 to 175 °C
SMILES: CCn1c(-c2ccccc2C)nc(-c2ccncc2)c1-c1ccc(Cl)cc1 [Example 8, 4-[5-(4-Chloro-phenyl)-1-ethyl-2-(2-methyl-phenyl)-1H-imidazol-4-yl]-pyridine]

- melting point: 115 to 118 °C
SMILES: C=CCn1c(-c2c(C)cc(C)cc2C)nc(-c2ccncc2)c1-c1ccc(C)cc1 [Example 23, 4-[1-Allyl-5-(4-methyl-phenyl)-2-(2,4,6-trimethyl-phenyl)-1H-imidazol-4-yl]-pyridine]

- melting point: 144 to 147 °C
SMILES: CCn1c(-c2ccccc2Cl)nc(-c2ccncc2)c1-c1ccc(Cl)cc1 [Example 15, 4-[5-(4-Chloro-phenyl)-2-(2-chloro-phenyl)-1-ethyl-1H-imidazol-4-yl]-pyridine]

- melting point: 220 to 222 °C
SMILES: CCCn1c(-c2c(Cl)cccc2Cl)nc(-c2ccncc2)c1-c1ccc(Cl)cc1 [Example 49, 4-[5-(4-Chloro-phenyl)-2-(2,6-dichloro-phenyl)-1-propyl-1H-imidazol-4-yl]-pyridine]

Further lines, the compound ahead of its results:

SMILES: C=CCC(O)(CC=C)c1nc(-c2ccncc2)c(-c2ccc(Cl)cc2)n1CC [Example 42, 4-[5-(4-Chloro-phenyl)-1-ethyl-4-pyridin-4-yl-1H-imidazol-2-yl]-hepta-1,6-dien-4-ol]
- melting point: 159 to 160 °C

SMILES: CCn1c(C(O)(C(C)C)C(C)C)nc(-c2ccncc2)c1-c1ccc(Cl)cc1 [Example 41, 3-[5-(4-Chloro-phenyl)-1-ethyl-4-pyridin-4-yl-1H-imidazol-2-yl]-2,4-dimethyl-pentan-3-ol]
- melting point: 221 to 223 °C

SMILES: CCn1c(-c2c(C)cc(C)cc2C)nc(-c2ccncc2)c1-c1ccc(C)cc1 [Example 4, 4-[1-Ethyl-5-(4-methyl-phenyl)-2-(2,4,6-trimethyl-phenyl)-1H-imidazol-4-yl]-pyridine]
- melting point: 137 to 140 °C

SMILES: CCn1c(-c2c(OC)cc(OC)cc2OC)nc(-c2ccncc2)c1-c1ccc(Cl)cc1 [Example 18, 4-[5-(4-Chloro-phenyl)-1-ethyl-2-(2,4,6-trimethoxy-phenyl)-1H-imidazol-4-yl]-pyridine]
- melting point: 255 to 256 °C

SMILES: CCn1c(-c2c(C)cc(C)cc2C)nc(-c2ccncc2)c1-c1ccc(C(F)(F)F)cc1 [Example 13, 4-[1-Ethyl-5-(4-trifluoromethyl-phenyl)-2-(2,4,6-trimethyl-phenyl)-1H-imidazol-4-yl]-pyridine]
- melting point: 227 to 228 °C

SMILES: Cc1ccc(-c2c(-c3ccncc3)nc(-c3c(C)cc(C)cc3C)n2C)cc1 [Example 2, 4-[1-Methyl-5-(4-methyl-phenyl)-2-(2,4,6-trimethyl-phenyl)-1H-imidazol-4-yl]-pyridine]
- melting point: 204 to 207 °C

SMILES: CCn1c(-c2c(C)cc(C)cc2C)nc(-c2ccncc2)c1-c1ccc(F)cc1 [Example 10, 4-[1-Ethyl-5-(4-fluoro-phenyl)-2-(2,4,6-trimethyl-phenyl)-1H-imidazol-4-yl]-pyridine]
- melting point: 194 to 196 °C

SMILES: CCn1c(C(O)(c2cccc(F)c2)c2cccc(F)c2)nc(-c2ccncc2)c1-c1ccc(Cl)cc1 [Example 46, [5-(4-Chloro-phenyl)-1-ethyl-4-pyridin-4-yl-1H-imidazol-2-yl]-bis-(3-fluoro-phenyl)-methanol]
- melting point: 225 to 227 °C

From US20060173048A1, “Imidazole derivatives” (priority 2005, published 2006)
